In PubChem BioAssay (NCI):
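All cell lines were grown in 96-well plates and treated with compound for 48 hours. The concentration for full growth arrest is given as TGI.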

Key:
Assay in all cases: NCI anticancer screen, dose series, 48 h
786-0 renal = system: 786-0 renal
A498 renal = system: A498 renal
A549 NSCLC = system: A549 NSCLC
ACHN renal = system: ACHN renal
BT-549 breast = system: BT-549 breast
CAKI-1 renal = system: CAKI-1 renal
COLO 205 colon = system: COLO 205 colon
DU-145 prostate = system: DU-145 prostate
EKVX NSCLC = system: EKVX NSCLC
HCC-2998 colon = system: HCC-2998 colon
HCT-116 colon = system: HCT-116 colon
HCT-15 colon = system: HCT-15 colon
HL-60(TB) leukemia = system: HL-60(TB) leukemia
HOP-62 NSCLC = system: HOP-62 NSCLC
HOP-92 NSCLC = system: HOP-92 NSCLC
HS 578T breast = system: HS 578T breast
HT29 colon = system: HT29 colon
IGROV1 ovarian = system: IGROV1 ovarian
K-562 leukemia = system: K-562 leukemia
KM12 colon = system: KM12 colon
LOX IMVI melanoma = system: LOX IMVI melanoma
M14 melanoma = system: M14 melanoma
MALME-3M melanoma = system: MALME-3M melanoma
MCF7 breast = system: MCF7 breast
MDA-MB-231 breast = system: MDA-MB-231 breast
MDA-MB-435 = system: MDA-MB-435
MDA-N = system: MDA-N
MOLT-4 leukemia = system: MOLT-4 leukemia
NCI-H226 lung = system: NCI-H226 lung
NCI-H23 lung = system: NCI-H23 lung
NCI-H460 lung = system: NCI-H460 lung
NCI-H522 lung = system: NCI-H522 lung
NCI/ADR-RES ovarian = system: NCI/ADR-RES ovarian
OVCAR-3 ovarian = system: OVCAR-3 ovarian
OVCAR-4 ovarian = system: OVCAR-4 ovarian
OVCAR-5 ovarian = system: OVCAR-5 ovarian
OVCAR-8 ovarian = system: OVCAR-8 ovarian
PC-3 prostate = system: PC-3 prostate
RPMI-8226 leukemia = system: RPMI-8226 leukemia
RXF 393 renal = system: RXF 393 renal
SF-268 CNS = system: SF-268 CNS
SF-295 CNS = system: SF-295 CNS
SF-539 CNS = system: SF-539 CNS
SK-MEL-2 melanoma = system: SK-MEL-2 melanoma
SK-MEL-28 melanoma = system: SK-MEL-28 melanoma
SK-MEL-5 melanoma = system: SK-MEL-5 melanoma
SK-OV-3 ovarian = system: SK-OV-3 ovarian
SN12C renal = system: SN12C renal
SNB-19 CNS = system: SNB-19 CNS
SNB-75 CNS = system: SNB-75 CNS
SR leukemia = system: SR leukemia
SW-620 colon = system: SW-620 colon
T-47D breast = system: T-47D breast
TK-10 renal = system: TK-10 renal
U251 CNS = system: U251 CNS
UACC-257 melanoma = system: UACC-257 melanoma
UACC-62 melanoma = system: UACC-62 melanoma
UO-31 renal = system: UO-31 renal
CCRF-CEM leukemia = system: CCRF-CEM leukemia
DLD-1 colon = system: DLD-1 colon
DMS 273 small cell lung = system: DMS 273 small cell lung
HOP-18 NSCLC = system: HOP-18 NSCLC
KM20L2 colon = system: KM20L2 colon
M19-MEL melanoma = system: M19-MEL melanoma
SNB-78 CNS = system: SNB-78 CNS

Measured: TGI

CC(=O)NC1C(OCc2ccccc2)OC(CO)C(O)C1OC(C)C(=O)NC(C(=O)NC(CCC(=O)NCCCCNc1c2ccccc2nc2cccc([N+](=O)[O-])c12)C(N)=O)C(C)C (configuration not stated)
12.5 µM: SK-MEL-2 melanoma
0.511 µM: NCI-H522 lung
2.84 µM: MDA-MB-435
10.4 µM: IGROV1 ovarian
9.53 µM: SN12C renal
3.67 µM: MDA-N
4.52 µM: HOP-92 NSCLC
10.5 µM: HCT-116 colon | SNB-75 CNS
4.08 µM: MALME-3M melanoma
20.8 µM: BT-549 breast
26.8 µM: MOLT-4 leukemia
40.2 µM: HCT-15 colon
7.19 µM: SK-MEL-28 melanoma
11.6 µM: COLO 205 colon
> 44 µM: MCF7 breast
3.97 µM: OVCAR-4 ovarian
7.68 µM: KM12 colon
19.6 µM: DU-145 prostate
11.2 µM: SF-539 CNS
25.5 µM: MDA-MB-231 breast
34.5 µM: SNB-19 CNS
8.71 µM: HT29 colon
15.9 µM: UACC-257 melanoma
4.68 µM: LOX IMVI melanoma
2.61 µM: SR leukemia
3.47 µM: HCC-2998 colon
12.3 µM: NCI-H226 lung
7.39 µM: SK-MEL-5 melanoma
13.4 µM: UO-31 renal
11.7 µM: HOP-62 NSCLC
32.4 µM: TK-10 renal
> 30.8 µM: PC-3 prostate
19.8 µM: OVCAR-5 ovarian
5.03 µM: UACC-62 melanoma
9.62 µM: OVCAR-8 ovarian
10.1 µM: EKVX NSCLC
> 100 µM: CAKI-1 renal | K-562 leukemia | NCI/ADR-RES ovarian
4.75 µM: NCI-H23 lung
9.18 µM: ACHN renal
3.56 µM: RXF 393 renal
5.45 µM: 786-0 renal
6.77 µM: HL-60(TB) leukemia
43.1 µM: SF-295 CNS
7.77 µM: A549 NSCLC
4.74 µM: A498 renal
> 38.2 µM: T-47D breast
> 63.3 µM: SK-OV-3 ovarian
3.32 µM: M14 melanoma
42.6 µM: HS 578T breast
6.14 µM: OVCAR-3 ovarian
13.1 µM: SF-268 CNS
> 32.9 µM: SW-620 colon
> 56.7 µM: U251 CNS
2.39 µM: RPMI-8226 leukemia
9.93 µM: NCI-H460 lung

CCCC(=O)N[C@H]1C2C3CC4C5CC(C42)C1(C)C53 (some centres not stated)
> 100 µM: 786-0 renal | A498 renal | A549 NSCLC | ACHN renal | CAKI-1 renal | CCRF-CEM leukemia | COLO 205 colon | DLD-1 colon | DMS 273 small cell lung | EKVX NSCLC | HCC-2998 colon | HCT-116 colon | HCT-15 colon | HL-60(TB) leukemia | HOP-18 NSCLC | HOP-62 NSCLC | HOP-92 NSCLC | HT29 colon | IGROV1 ovarian | K-562 leukemia | KM12 colon | KM20L2 colon | LOX IMVI melanoma | M14 melanoma | M19-MEL melanoma | MALME-3M melanoma | MOLT-4 leukemia | NCI-H226 lung | NCI-H460 lung | NCI-H522 lung | OVCAR-3 ovarian | OVCAR-4 ovarian | OVCAR-5 ovarian | RPMI-8226 leukemia | RXF 393 renal | SF-268 CNS | SF-295 CNS | SF-539 CNS | SK-MEL-2 melanoma | SK-MEL-28 melanoma | SK-MEL-5 melanoma | SK-OV-3 ovarian | SN12C renal | SNB-19 CNS | SNB-75 CNS | SNB-78 CNS | SR leukemia | SW-620 colon | TK-10 renal | U251 CNS | UACC-257 melanoma | UACC-62 melanoma | UO-31 renal

Cc1ccc(N=Nc2c(O)ccc3ccccc23)cc1
> 100 µM: 786-0 renal | A498 renal | A549 NSCLC | ACHN renal | BT-549 breast | CAKI-1 renal | COLO 205 colon | DU-145 prostate | EKVX NSCLC | HCT-116 colon | HCT-15 colon | HOP-62 NSCLC | HOP-92 NSCLC | HS 578T breast | HT29 colon | IGROV1 ovarian | KM12 colon | LOX IMVI melanoma | M14 melanoma | MALME-3M melanoma | MDA-MB-231 breast | MDA-MB-435 | MDA-N | MOLT-4 leukemia | NCI-H226 lung | NCI-H23 lung | NCI-H522 lung | NCI/ADR-RES ovarian | OVCAR-3 ovarian | OVCAR-4 ovarian | OVCAR-5 ovarian | OVCAR-8 ovarian | PC-3 prostate | RPMI-8226 leukemia | RXF 393 renal | SF-268 CNS | SF-295 CNS | SK-MEL-2 melanoma | SK-MEL-28 melanoma | SK-MEL-5 melanoma | SK-OV-3 ovarian | SN12C renal | SNB-19 CNS | SNB-75 CNS | SR leukemia | SW-620 colon | T-47D breast | TK-10 renal | U251 CNS | UACC-257 melanoma | UACC-62 melanoma | UO-31 renal
75.8 µM: CCRF-CEM leukemia

Cc1cc(C)c2c(c1)C(=O)/C(=C/c1ccccc1C(=O)O)C2
89.3 µM: SF-539 CNS
> 100 µM: 786-0 renal | A498 renal | A549 NSCLC | ACHN renal | BT-549 breast | CAKI-1 renal | CCRF-CEM leukemia | DU-145 prostate | EKVX NSCLC | HCC-2998 colon | HCT-116 colon | HCT-15 colon | HL-60(TB) leukemia | HOP-62 NSCLC | HOP-92 NSCLC | HS 578T breast | HT29 colon | IGROV1 ovarian | K-562 leukemia | KM12 colon | LOX IMVI melanoma | M14 melanoma | MALME-3M melanoma | MCF7 breast | MDA-MB-231 breast | MDA-N | MOLT-4 leukemia | NCI-H226 lung | NCI-H460 lung | NCI-H522 lung | OVCAR-3 ovarian | OVCAR-4 ovarian | OVCAR-8 ovarian | PC-3 prostate | RPMI-8226 leukemia | RXF 393 renal | SF-268 CNS | SF-295 CNS | SK-MEL-2 melanoma | SK-MEL-28 melanoma | SK-MEL-5 melanoma | SN12C renal | SNB-19 CNS | SNB-75 CNS | SR leukemia | SW-620 colon | T-47D breast | TK-10 renal | U251 CNS | UACC-257 melanoma | UACC-62 melanoma | UO-31 renal
